Assay results: KR20170021349A, “다양한 질병의 치료를 위한 jnk 신호 전달 경로의 세포 투과성 펩타이드 억제자의 새로운 용도” (자이겐 인플라메이션 리미티드, priority 2014, dated 2017)
Entries after “also recorded” stand apart in the source; their conditions may differ.

Tests used:
TC-3 cells [1] = assay: Cellular import of fluorescein-labelled TAT and TAT-IB1(s) peptides; type: cell-based
[2] = test system: recombinant JNK1, JNK2, JNK3; assay: Solid-phase kinase assay: JNK-mediated phosphorylation of c-Jun, ATF2, Elk1; type: biochemical; details: GST-Jun (aa 1-73), 0-250 μM
TC-3 cells [3] = assay: IL-1-induced pancreatic beta-cell apoptosis; type: cell-based; details: 1 μM single addition, 15 days IL-1
[4] = test system: endogenous JNK in HepG2 cells; assay: AlphaScreen kinase assay of endogenous IL-1-induced JNK activity; type: cell-based; details: IL-1-dependent JNK activity, Fig. 3d
[5] = test system: human foreskin fibroblasts (HFFs); assay: Neutral Red cytotoxicity assay; type: cell-based; details: 1, 2, 5 μM, 24 h
C57BL/6 mice = assay: Bleomycin-induced acute lung inflammation (COPD model); type: in vivo, mouse
porcine islets = assay: Porcine islet isolation; type: cell-based, pig
rat pancreatic islets [6] = assay: Rat islet isolation after warm ischemia; type: cell-based
rat pancreatic islets [7] = assay: Rat islets, 4 h hypoxia; type: cell-based; details: 100 μM
Wistar rats [8] = assay: Ligature-induced periodontitis; type: in vivo, rat; details: day 17
[9] = test system: Hep G2 tumours in SWISS nude mice; assay: Orthotopic Hep G2 human liver carcinoma, dose/response; type: in vivo, mouse
Brown Norway rats = assay: STZ diabetic retinopathy, repeated subconjunctival administration; type: in vivo, rat
Wistar rats [10] = assay: PAN-induced nephropathy, frequency of administration; type: in vivo, rat
Lewis rats = assay: Endotoxin-induced uveitis (EIU), duration of action after subconjunctival injection; type: in vivo, rat
[11] = 20 μg/eye, 1 day before induction

With “NH2-DQSRPVQPFLNLTTPRKPRPPRRRQRRKKRG-COOH (H-DQSRPVQPFLNLTTPRKPRPPRRRQRRKKRG-OH; also: D-amino acids (positions not given here)) [XG-102]” the “time to enter cells” value (TC-3 cells [1]; 1 μM labelled peptide) was < 5 분, the stability inside cells (TC-3 cells [1]; time course) was “극도로 안정하다” and the “fold less efficient than L-TAT-IB1(s) in decreasing JNK-mediated c-Jun phosphorylation” value [2] was 10-20 배. For the same substance, the “long-term protection against IL-1-induced cell death” value (TC-3 cells [3]) was “보호를 부여할 수 있었으나”, the “inhibition of JNK activity compared with L-JNKI” value [4] was “보다 효과적으로 JNK 활성을 억제한다” and the cytotoxicity [5] was “관찰되지 않았으며”. For the same substance, the “neutrophil recruitment or other cell types in BAL” value (C57BL/6 mice; 0.001 mg/kg s.c. single dose, 24 h) was “영향을 미치지 않았다”, the “neutrophil recruitment and total cell number in BAL” value (C57BL/6 mice; 0.1 mg/kg s.c. single dose, 24 h) was “현저하게 감소시켰다” and the “lung MPO level” value (C57BL/6 mice; MPO not induced by bleomycin) was “영향을 주지 않았다”. The “TNF level in BALF” value (C57BL/6 mice; TNF very low after BLM) was “감소하는 경향이 관찰되었다”, the “isolations with OCR/DNA above cut-off, successfully transplanted into NHPs” value (porcine islets) was 6/6 and the “relative c-fos gene expression” value (porcine islets; 10 μM) was “감소시키고”. The “JNK activation during isolation” value (porcine islets; 10 μM in pancreas and isolation solutions) was “차단하고”, the “viability of freshly isolated islets (OCR/DNA, ATP/protein)” value (porcine islets; 10 μM vs paired untreated control) was “통계적으로 현저하고 중요한 영향을 가짐” and the “islet function (static insulin secretion) after 18 h culture” value (rat pancreatic islets [6]; 15-min ischemia) was “섬 기능에 영향을 미치지 않았다”. The “glucose-induced insulin secretion vs ischemic rats” value (rat pancreatic islets [6]; 30-min ischemia, 100 μM) was “더 높았으며”, the “islet apoptosis and necrosis” value (rat pancreatic islets [6]; 30-min ischemia, 100 μM) was “세포 자멸 및 괴사를 감소시키는” and the “JNK and PAF2 phosphorylation induced by 15-min ischemia” value (rat pancreatic islets [6]; Western blot, Fig. 56) was “투여량 의존적으로 감소되는”. The “hypoxia-induced phosphorylation of JNK and JUN” value (rat pancreatic islets [7]; 1 h pre-treatment + 4 h hypoxia) was “인산화를 억제하지 않았다”, the “islet apoptosis and necrosis” value (rat pancreatic islets [7]; normoxia and hypoxia) was “감소되었다” and the “alveolar bone height loss (ABHL)” value (Wistar rats [8]) was “골 파괴가 덜 심함”. For the same substance, the “IL1-β expression vs placebo” value (Wistar rats [8]; gingival tissue ELISA) was “현저하게 감소되었다”, the “gingival inflammation (GI) level” value (Wistar rats [8]; single intragingival dose day 10) was “GI 수준을 강하게 감소시켰다” and the T/C ([9]; 0.1 mg/kg) was 123%. For the same substance, the “tumour mass in liver, per mouse sacrificed at D171 (microscopy)” value ([9]; 0.1 mg/kg, 2 mice) was “간에 종양 (1.3cm); also recorded: 검출된 종양 없음”, the “mean survival time (as headed)” value ([9]; 0.1 mg/kg/inj i.v. Q4Dx4, vehicle 86) was 105 days and the T/C ([9]; 1 mg/kg) was 161%. The “tumour mass in liver, per mouse sacrificed at D171 (microscopy)” value ([9]; 1 mg/kg, 3 mice (2 without tumour)) was “검출된 종양 없음; also recorded: 간에 종양 (1.9cm)”, the “mean survival time (as headed)” value ([9]; 1 mg/kg/inj i.v. Q4Dx4) was 138 days and the T/C ([9]; 5 mg/kg) was 137%. For the same substance, the “tumour mass in liver, per mouse sacrificed at D171 (microscopy)” value ([9]; 5 mg/kg, 3 mice) was “검출된 종양 없음 검출된 종양 없음 검출된 종양 없음”, the “mean survival time (as headed)” value ([9]; 5 mg/kg/inj i.v. Q4Dx4) was 118 days and the “tolerance (body weight)” value ([9]; 0.1-5 mg/kg) was “내약성이 우수함”. The “decline of contrast threshold” value (Brown Norway rats; 200 μg/eye) was “현저하게 지연되었다”, the “ocular irritation (chemosis, hyperemia, discharge)” value (Brown Norway rats; 2, 20, 200 μg/eye every 2 weeks subconj.) was “안구 자극이 관찰되지 않았다” and the “retinal cytokine levels (all 23)” value (Brown Norway rats; 20 or 200 μg/eye) was “BLQ”. For the same substance, the “progression of visual acuity loss (spatial frequency threshold)” value (Brown Norway rats; 20 or 200 μg/eye, days 57-99) was “현저하게 지연시켰다”, the “contrast threshold vs vehicle” value (Brown Norway rats; all doses, day 99) was “현저하게 높은 대조 역치 값을 가졌으며” and the “visual acuity score vs vehicle-treated STZ group” value (Brown Norway rats; all doses, day 113 (significant at 2 and 200 μg/eye)) was “높은 시력 점수를 보였고”. For the same substance, the “glomerular injury score (GIS)” value (Wistar rats [10]; 4 mg/kg i.v. x1 (d21), day 49) was 1.53 ± 0.05, the “glomerular injury score (GIS)” value (Wistar rats [10]; 4 mg/kg i.v. x1 (d21), day 77, PAN/vehicle 1.39 ± 0.10) was 0.82 ± 0.04 and the “percentage of injured glomeruli” value (Wistar rats [10]; 4 mg/kg i.v. x1, day 77 (PAN/vehicle 91%)) was 69%. The “glomerular injury score (GIS)” value (Wistar rats [10]; 4 mg/kg i.v. x2 (d21, d35), day 49, P<0.01) was 1.26 ± 0.06, the “glomerular injury score (GIS)” value (Wistar rats [10]; 4 mg/kg i.v. x4 (weekly from d21), day 49, PAN/vehicle 1.50 ± 0.06) was 0.94 ± 0.05 and the “percentage of injured glomeruli” value (Wistar rats [10]; 4 mg/kg i.v. x4, day 49) was 76.9%. For the same substance, the “mean % glomeruli with grade 1” value (Wistar rats [10]; 4 mg/kg i.v. x4, day 49 (PAN/vehicle 37%)) was 61%, the “mean % glomeruli with grade 2” value (Wistar rats [10]; 4 mg/kg i.v. x4, day 49 (PAN/vehicle 46%)) was 15% and the “clinical score, mean ± SEM (n=20)” value (Lewis rats; 20 μg/eye subconj., day of induction, 24 h after LPS, vehicle 4.0 ± 0.2) was 2.8 ± 0.2. For the same substance, the “clinical score, mean ± SEM (n=20)” value (Lewis rats; [11]) was 1.6 ± 0.1, the “clinical score, median” value (Lewis rats; [11]) was 1.5 and the “leukocytes in aqueous humor, mean ± SEM (n=20)” value (Lewis rats; [11]) was 1668 ± 149 세포/μL. For the same substance, the “leukocytes in aqueous humor, median” value (Lewis rats; [11]) was 1540 세포/μL.
